Test results: US9938286B2, “Nalmefene salts as medicaments for reducing alcohol consumption or for preventing excessive alcohol consumption” (H. Lundbeck A/S, priority 2013, dated 2018)
Structures can show the parent of a compound that is named as a salt. Where two headings read alike, the source gives them in different places.

How the values were obtained:
[1] = Dynamic vapour sorption (DVS), water absorption; format: physicochemical
Protocol: Dynamic vapour sorption experiments were performed using a SMS DVS advantage 01 changing the relative humidity from 30-40% RH up to 90-95% RH in steps of 10%RH.

[2] = Attempt to form hydrates: precipitation from pure water, XRPD of precipitate; format: physicochemical; conditions: precipitated from pure water at room temperature and atmospheric pressure
Source text: A “hydrate” indicates a crystalline material with water (H2O) molecules incorporated into the crystal lattice. More particularly, a “non-hydrate forming salt” of nalmefene indicates a salt of which any isolated crystal form contains less than 25 mol % water, such as less than 20 mol % water, such as less than 15 mol % water, such as less than 10 mol % water, such as less than 5 mol % water, such as less than 4, 3, 2 or 1 mol % water, such as substantially no water in the crystal lattice of said salt.

[3] = Attempt to form solvates: precipitation from organic solvents, XRPD of precipitate; format: physicochemical; conditions: for solvate formation from EtOH: precipitated from EtOH; for solvate formation from the organic solvents assessed: EtOH, MeOH, IPA, EtOAc, acetone, ACN, THF, MIBK, toluene and 2.2.2-trifluoroethanol, room temperature, atmospheric pressure
Source text: A “solvate” indicates a crystalline material with solvent molecules incorporated into the crystal lattice. In the present context, when referring to “solvents” these are limited to non-aqueous solvents, preferably organic solvents. Solvents assessed for solvate formation according to the invention includes the following: ethanol (EtOH), methanol (MeOH), isopropanol (IPA), ethyl acetate (EtOAc), acetone, acetonitrile (ACN), tetrahydrofurane (THF), methyl isobutyl ketone (MIBK), toluene and 2,2,2-trifluoroethanol.
The clear supernatant was diluted and assayed by HPLC. All precipitates were analyzed by XRPD.

[4] = Thermodynamic aqueous solubility in pure water (shaking, HPLC); conditions: for pH: aqueous solubility sample in pure water; for pH / Solubility (mg base/mL), aqueous: 23° C. ± 2°; for Solubility (mg base/mL), aqueous: pure water, normalised to nalmefene free base
[5] = Solubility in organic solvents (HPLC); conditions: 23° C. ± 2°
Protocol: The suspensions were heated with the purpose of obtaining complete dissolution and then cooled to room temperature and left for equilibrium to be attained. The clear supernatant was diluted and assayed by HPLC. All precipitates were analyzed by XRPD.
For comparison, the solvate formation from nalmefene hydrochloride was also investigated.

[6] = precipitated/crystallized from ethanol, Brittain 1996, cited from earlier work
[7] = Brittain 1996, WO 2010/063292, cited from earlier work
κ receptor = κ receptor (Homo sapiens, UniProt P41145); conditions: in vitro studies; cited from earlier work
μ receptor = μ receptor (Homo sapiens, UniProt P35372); conditions: in vitro studies; cited from earlier work
δ receptor = δ receptor (Homo sapiens, UniProt P41143); conditions: in vitro studies; cited from earlier work
Chain of δ receptor (P41143 whole entry): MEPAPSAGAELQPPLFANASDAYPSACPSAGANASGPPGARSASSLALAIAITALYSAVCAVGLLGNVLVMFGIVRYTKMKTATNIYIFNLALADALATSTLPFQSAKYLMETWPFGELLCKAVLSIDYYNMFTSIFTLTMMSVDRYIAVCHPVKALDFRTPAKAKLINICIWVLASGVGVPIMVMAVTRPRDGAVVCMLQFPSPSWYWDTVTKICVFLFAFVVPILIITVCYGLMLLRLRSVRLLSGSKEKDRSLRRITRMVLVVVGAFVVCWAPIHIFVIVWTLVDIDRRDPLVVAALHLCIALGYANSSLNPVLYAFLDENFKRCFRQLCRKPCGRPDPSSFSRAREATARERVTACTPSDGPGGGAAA

Chain of κ receptor (P41145 whole entry): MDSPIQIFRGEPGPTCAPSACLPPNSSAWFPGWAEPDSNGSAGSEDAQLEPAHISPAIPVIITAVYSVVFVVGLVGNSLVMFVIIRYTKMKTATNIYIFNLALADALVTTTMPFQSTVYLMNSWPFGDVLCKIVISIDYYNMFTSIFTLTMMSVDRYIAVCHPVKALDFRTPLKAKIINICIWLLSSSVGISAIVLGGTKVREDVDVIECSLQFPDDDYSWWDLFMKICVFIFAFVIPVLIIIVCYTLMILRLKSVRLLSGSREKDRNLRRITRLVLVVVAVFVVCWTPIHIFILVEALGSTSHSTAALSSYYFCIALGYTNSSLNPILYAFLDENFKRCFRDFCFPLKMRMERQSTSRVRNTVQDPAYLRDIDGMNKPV
Chain of μ receptor (P35372 whole entry): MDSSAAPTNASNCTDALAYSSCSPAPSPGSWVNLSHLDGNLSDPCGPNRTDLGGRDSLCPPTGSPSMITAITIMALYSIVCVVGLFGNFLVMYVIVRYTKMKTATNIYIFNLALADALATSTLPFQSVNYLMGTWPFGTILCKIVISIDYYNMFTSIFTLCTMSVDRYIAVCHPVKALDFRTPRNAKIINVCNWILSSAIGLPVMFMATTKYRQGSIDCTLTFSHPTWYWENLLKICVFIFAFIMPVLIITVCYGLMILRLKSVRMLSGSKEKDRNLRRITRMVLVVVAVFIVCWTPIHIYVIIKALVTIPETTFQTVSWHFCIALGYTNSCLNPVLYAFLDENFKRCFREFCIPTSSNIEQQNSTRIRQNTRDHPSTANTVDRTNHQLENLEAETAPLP

## C1=Cc2cccc(OC[C@H]3CNCCO3)c2C1.O=S(=O)(O)c1ccccc1 [Benzene sulfonate]
[1]
  % abs. at 90% RH (water absorption determined by DVS): <0.2%
[2]
  hydrate formation: not to form hydrates
[3]
  solvate formation from EtOH: solvate
[3]; listed as benzene sulfonate salt
  solvate formation from EtOH: formed solvate
[3]; precipitated from THF
  solvate formation from THF: formed solvate
[4]
  pH: 3.12

## C=C1CC[C@@]2(O)[C@H]3Cc4ccc(O)c5c4[C@@]2(CCN3CC2CC2)[C@H]1O5.O=C(O)/C=C\C(=O)O [Hydrogen maleate]
[1]
  % abs. at 90% RH (water absorption determined by DVS): 0.2%
[2]
  hydrate formation: not to form hydrates
[3]
  solvate formation from the organic solvents assessed: No solvates were formed

## O=C(O)c1ccccc1O [Salicylate]
[1]
  % abs. at 90% RH (water absorption determined by DVS): 0.4%
[2]
  hydrate formation: not to form hydrates
[3]; precipitated from IPA
  solvate formation from IPA: formed solvate
[5]; 2,2,2-trifluoroethanol, * = precipitated as solvate
  Solubility in 2,2,2-trifluoro-EtOH: 120 mg base/mL
[5]; ACN
  Solubility in ACN: 8.2 mg base/mL
[5]; EtOAc
  Solubility in EtOAc: 2.0 mg base/mL
[5]; EtOH, * = precipitated as solvate
  Solubility in EtOH: 19 mg base/mL
[5]; IPA, * = precipitated as solvate
  Solubility in IPA: 0.5* mg base/mL
[5]; MIBK
  Solubility in MIBK: 2.9 mg base/mL
[5]; MeOH, * = precipitated as solvate
  Solubility in MeOH: 91 mg base/mL
[5]; THF
  Solubility in THF: 35 mg base/mL
[5]; acetone
  Solubility in acetone: 9.7 mg base/mL
[4]
  pH: 7.14
  Solubility (mg base/mL), aqueous: 3.0 mg base/mL
[4]; listed as salicylate salt
  Solubility (mg base/mL), aqueous: 3 mg base/mL

## C=C1CC[C@@]2(O)[C@H]3Cc4ccc(O)c5c4[C@@]2(CCN3CC2CC2)[C@H]1O5.O=C(O)CC(=O)O
[1]
  % abs. at 90% RH (water absorption determined by DVS): 0.35%
[2]
  hydrate formation: not to form hydrates
[3]; precipitated from MeOH
  solvate formation from MeOH: formed solvate

## C=C1CC[C@@]2(O)[C@H]3Cc4ccc(O)c5c4[C@@]2(CCN3CC2CC2)[C@H]1O5 [nalmefene hydrochloride]
[6]
  solvate formation from ethanol (literature): form solvate
[6]; listed as Nalmefene hydrochloride
  solvate formation from ethanol (literature): ethanol solvate
[7]; listed as HCl salt of nalmefene
  hydrate formation / thermodynamically stable form (literature): only thermodynamically stable in hydrated or solvated form
[7]; listed as nalmefene hydrochloride salt
  hydrate formation / thermodynamically stable form (literature): hydrate-forming salt
[3]; listed as hydrochloride salt
  solvate formation from the organic solvents assessed: formed solvate from all the organic solvents
[4]; unpublished data
  aqueous solubility of the known hydrochloride salt: 109 mg base/mL

## C=C1CC[C@@]2(O)[C@H]3Cc4ccc(O)c5c4[C@@]2(CCN3CC2CC2)[C@H]1O5 [nalmefene, 17-(cyclopropylmethyl)-4,5-alpha-epoxy-6-methylenemorphinan-3,14-diol]
κ receptor
  activity at the κ receptor: partial agonist activity
μ receptor
  activity at the μ receptor: antagonist activity
δ receptor
  activity at the δ receptor: antagonist activity

## L-lactate
[1]
  % abs. at 90% RH (water absorption determined by DVS): 1.2%
[2]
  hydrate formation: corresponds to a monohydrate
[3]
  solvate formation from the organic solvents assessed: No solvates were formed

## C=C1CC[C@@]2(O)[C@H]3Cc4ccc(O)c5c4[C@@]2(CCN3CC2CC2)[C@H]1O5.O=C(O)/C=C/C(=O)O
[1]
  % abs. at 90% RH (water absorption determined by DVS): 0.6%
[2]
  hydrate formation: not to form hydrates
[3]; precipitated from 2,2,2-trifluoroethanol
  solvate formation from 2,2,2-trifluoroethanol: formed solvate

## C=C1CC[C@@]2(O)[C@H]3Cc4ccc(O)c5c4[C@@]2(CCN3CC2CC2)[C@H]1O5.O=C(O)CCCCC(=O)O
[1]
  % abs. at 90% RH (water absorption determined by DVS): 0.35%
[2]
  hydrate formation: not to form hydrates
[3]
  solvate formation from the organic solvents assessed: No solvates were formed
